Legend:
PDE9 = PDE9 (Homo sapiens (Human), UniProt O76083); experiment: PDE9 inhibition assay; format: biochemical; conditions: 3H-cAMP substrate, SPA
Protocol: Reactions are initiated by addition of the cyclic nucleotide substrate, and reactions are allowed to proceed for one hr at room temperature before being terminated through mixing with 15 uL 8 mg/mL yttrium silicate SPA beads (Amersham). […] Following a 1 hour incubation the reactions were terminated by addition of 15 uL 8 mg/mL yttrium silicate SPA beads (Amersham). […] IC50 values were calculated by nonlinear regression using XLfit (IDBS).

[1] = Blood Brain Barrier penetration (brain-to-plasma distribution); format: in vivo, Male CD mice; conditions: mouse, 10 mg/kg subcutaneous
Protocol: Male CD mice (20-24 g) were housed pair-wise with free access to food and water for an acclimatization period of 3-7 days before initiation of experiments. Prior to dosing the animals were fasted overnight. During testing, mice were kept in individual cages. The brain-to-plasma distribution was assessed 30 minutes and 2 hours after subcutaneous administration of the test compound at a dose of 10 mg/kg (n=3 at each time point). The dose volume was 10 ml/kg using appropriate vehicle to solubilize each test compound. At the time of sampling, animals were anesthetized with isoflurane and a systemic blood sample collected by cardiac puncture into vacutainers containing sodium heparin as anti-coagulant. The blood was centrifuged at 3500 rpm for 10 minutes at 4° C. to obtain plasma. Following decapitation, brains were dissected out and transferred to pre-weighed vessels followed by tissue weights determination. Plasma and brains were stored at −80° C. until quantitative bioanalysis by LC-MS/MS. Results are expressed as ng/ml for plasma and ng/g for brain samples.

Sequence of PDE9 (O76083 whole entry): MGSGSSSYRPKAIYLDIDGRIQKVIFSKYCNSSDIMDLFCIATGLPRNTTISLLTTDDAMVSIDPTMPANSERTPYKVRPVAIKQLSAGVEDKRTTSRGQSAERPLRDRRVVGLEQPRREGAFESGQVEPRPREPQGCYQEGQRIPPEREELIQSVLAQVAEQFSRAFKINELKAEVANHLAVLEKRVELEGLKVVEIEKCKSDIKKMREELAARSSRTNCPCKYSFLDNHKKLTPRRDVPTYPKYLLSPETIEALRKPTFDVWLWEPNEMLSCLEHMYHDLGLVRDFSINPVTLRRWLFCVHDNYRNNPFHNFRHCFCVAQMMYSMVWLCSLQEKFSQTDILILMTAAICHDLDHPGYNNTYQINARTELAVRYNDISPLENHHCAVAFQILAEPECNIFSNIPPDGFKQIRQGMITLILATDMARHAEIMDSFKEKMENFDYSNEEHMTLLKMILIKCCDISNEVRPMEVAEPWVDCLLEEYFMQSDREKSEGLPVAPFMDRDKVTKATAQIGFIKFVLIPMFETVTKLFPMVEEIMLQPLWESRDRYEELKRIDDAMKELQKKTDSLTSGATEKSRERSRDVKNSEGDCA

Structure (SMILES)	IC50 (PDE9)	Brain concentration after 120 minutes [1]	Brain concentration after 30 minutes ([1]; 30 min)
C[C@@H]1CN(Cc2ncccn2)C[C@H]1c1cn2c(C3CCOCC3)ncc2c(=O)[nH]1 (single isomer, unassigned) [Compound (P3, enantiomer 1)]	49 nM	120 mm.: 7 ng/mL	–
O=c1[nH]c(CN2CC(Oc3cccnc3)C2)cn2c(C3CCOCC3)ncc12 [Compound (P2), 6-[3-(pyridin-3-yloxy)-azetidin-1-ylmethyl]-3-(tetrahydropyran-4-yl)-7H-imidazo[1,5-a]pyrazin-8-one]	–	Below detection	Below detection

Source: patent US11608342B2, “PDE9 inhibitors with imidazo triazinone backbone and imidazo pyrazinone backbone for treatment of peripheral diseases” (H. LUNDBECK A/S, priority 2015, dated 2023)
